Measurements reported in patent US20240300940A1, “Phenothiazinyl Compounds and Uses” (Prosetta Biosciences, Inc., priority 2023, published 2024).

Columns and labels:
E. coli ATCC25922 = experiment: MIC assay, serial dilution; conditions: for MIC: Escherichia coli, ATCC25922, read-out: Anti-bacterial Activity (E. coli MIC (uM)), E. coli, Table 5
Hennes-20 cells = experiment: Hennes-20 oncology screen; type: cell-based; conditions: 72 h, alamar Blue
Method: To screen compounds for oncology activity Hennes-20 cells were plated at low (500 cells/well) versus high (15,000 cells/well) densities and treated with DMSO (vehicle) or dose-titration of compounds. The rationale for this screen is that an intrinsically toxic compound should kill cells regardless of density, including in Hennes-20 cells. However, a compound that selectively triggers the arrest of proliferation will inhibit cell growth when plated at a low density will appear cytotoxic due to inhibition of cell growth when plated at a low density but will appear non-toxic to cells plated at a high density where the cells are approaching confluence and the readout detected by a cell viability assay is already close to the maximum.
To conduct the Hennes-20 screen, two 96 well plates were seeded with Hennes 20 cells in parallel where one was plated at a density of 500 cells/well and the other was plated at a density of 15,000 cells/well. 90 uL of minimum essential media was added to each well and plates were placed in a 37 degrees Celsius incubator for 24 hours. The next day, 10 ul of media containing dilutions of compound in DMSO were added to each plate. Six wells on each plate received 10 ul of media containing only DMSO. Each well was gently mixed 5 times with a 100 ul pipette. Plates were incubated at 37 degrees Celsius for 72 hours and then 10 uL of alamar Blue was added to each well. Wells were mixed 5 times then incubated at 37 degrees Celsius for […]. Plates were then read at 530/590.
The rationale for the screen is as follows: Hennes-20 cells lack endogenous apoptosis. Cells plated at low density will proliferate and approach confluence in 72 hrs. A drug that arrests proliferation may have its proliferation blocking effect masked by the triggering of endogenous apoptosis. However, in the Hennes line, lacking endogenous apoptosis, such an arrest is manifest as a dose-dependent maintenance at low cell density. Since the high-density cells are plated close to confluence, the difference between Alamar Blue cell survival readings after 72 hrs reflects the ability of the drug to block proliferation in the low density-plated cells. In the high density-plated cells any diminution of Alamar Blue readout vs vehicle control is due to intrinsic toxicity, not proliferation arrest, since cells were already at confluence. Thus, a compound that appears toxic (low Alamar Blue readings after 72 hrs) on the low-density plate, but which appears non-toxic (high Alamar Blue readings after 72 hrs) on the high-density plate, must be arresting proliferation, since intrinsic compound toxicity should be observed at both low and high cell densities, not selectively on the low-density plate.

Row | Structure (SMILES) | MIC (E. coli ATCC25922) | EC50 (Hennes-20 cells) | Anti-bacterial Activity (E. coli MIC (uM)) (E. coli ATCC25922; E. coli, Table 5)
1 | FC(F)(F)C1CCCN1c1ccc2nc3ccc(N4CCCC4C(F)(F)F)cc3[s+]c2c1 (centres unmarked) [Compound 48] | 3.1 µM | – | –
2 | Cc1cc(N2CCOCC2)cc2[s+]c3cc(N4CCOCC4)cc(C)c3nc12 [Compound 93] | 100 µM | < 12500 nM | –
3 | c1cc2nc3ccc(N4CCCCCC4)cc3[s+]c2cc1N1CCCCCC1 [Compound 22] | 1.6 µM | < 500 nM | –
4 | CCN(CC)c1cc(Br)c2nc3c(C(C)(C)C)cc(N(CC)CC)cc3[s+]c2c1 [Compound 63] | – | 2500 nM | –
5 | Cc1cc(N2CC3C(C2)C3(C)C)cc2[s+]c3c(F)c(N4CC5C(C4)C5(C)C)cc(C)c3nc12 (centres unmarked) [Compound 14] | 6.25 µM | < 500 nM | –
6 | NCc1cc2nc3ccc(N4CCCC4)cc3[s+]c2cc1N1CCCC1 [Compound 27] | 12.5 µM | – | –
7 | Cc1cc(N2CCCC2)cc2[s+]c3c(F)c(N4CCCC4)cc(C)c3nc12 [Compound 21] | 1.6 µM | < 500 nM | –
8 | CC(C)(C)c1cc(N2CCCC2)cc2[s+]c3cc(N4CCC(C(=N)N)CC4)ccc3nc12 [Compound 89] | – | 12500 nM | –
9 | CC1(C)C2CN(c3ccc4nc5c(N6CCCC6)cc(N6CC7C(C6)C7(C)C)cc5[s+]c4c3)CC21 (centres unmarked) [Compound 4] | 3.1 µM | 500 nM | –
10 | CC(C)(C)OC(=O)NC1CCN(c2ccc3nc4ccc(N5CCC(NC(=O)OC(C)(C)C)C5)cc4[s+]c3c2)C1 (centres unmarked) [Compound 51] | 6.3 µM | – | –
11 | CN1CCN(c2ccc3nc4c(C(C)(C)C)cc(N5CCN(C)CC5)cc4[s+]c3c2)CC1 [Compound 85] | – | 12500 nM | –
12 | CC(C)(C)c1cc(N2CCC(C(=N)N)CC2)cc2[s+]c3cc(N4CCC(C(=N)N)CC4)ccc3nc12 [Compound 90] | – | 12500 nM | –
13 | CC1(C)C2CN(c3ccc4nc5cc(CN)c(N6CC7C(C6)C7(C)C)cc5[s+]c4c3)CC21 (centres unmarked) [Compound 7] | 6.3 µM | – | –
14 | CC1(C)CCCN1c1ccc2nc3ccc(N4CCCCCC4)cc3[s+]c2c1 [Compound 28] | 12.5 µM | – | –
15 | CCc1cc(N(CC)CC)cc2[s+]c3cc(N(CC)CC)cc(CC)c3nc12 [Compound 80] | 25 µM | < 2500 nM | –
16 | CC(C)(C)OC(=O)NCC1CCCN1c1ccc2nc3ccc(N4CCCC4CNC(=O)OC(C)(C)C)cc3[s+]c2c1 (centres unmarked) [Compound 49] | 1.6 µM | < 2500 nM | –
17 | CCc1cc(N(C)C)cc2[s+]c3cc(N4CCCN(C(=O)OC(C)(C)C)CC4)cc(CC)c3nc12 [Compound 74] | 6.3 µM | < 500 nM | –
18 | CC1(C)C2CN(c3ccc4nc5c(F)cc(N6CC7C(C6)C7(C)C)cc5[s+]c4c3)CC21 (centres unmarked) [Compound 5] | 6.25 µM | < 100 nM | –
19 | COc1cc2nc3c(N4CCCC4)cc(N4CCCC4)cc3[s+]c2cc1N1CCCC1 [Compound 76] | – | < 2500 nM | –
20 | CCc1cc(N2CCCC2)cc2[s+]c3cc(N4CCCC4)cc(C(C)C)c3nc12 [Compound 64] | – | – | 6.3 µM
21 | CC1(C)C2CN(c3cc(N4CCCC4)cc4[s+]c5cc(N6CCCC6)ccc5nc34)CC21 (centres unmarked) [Compound 23] | 1.6 µM | < 500 nM | –

Row | Structure (SMILES) | MIC (E. coli ATCC25922) | EC50 (Hennes-20 cells) | Anti-bacterial Activity (E. coli MIC (uM)) (E. coli ATCC25922; E. coli, Table 5)
22 | c1cc2nc3ccc(N4CC5CC5C4)cc3[s+]c2cc1N1CC2CC2C1 (centres unmarked) [Compound 3] | 1.6 µM | – | –
23 | CCc1cccc2[s+]c3cc(N4CCCC4)ccc3nc12 [Compound 37] | 6.3 µM | – | –
24 | CCc1cc(N2CCCC2)cc2[s+]c3cc(N4CCOCC4)cc(CC)c3nc12 [Compound 72] | 25 µM | < 12500 nM | –
25 | c1cc2nc3ccc(N4CCCCC4)cc3[s+]c2cc1N1CCCCC1 [Compound 62] | 6.3 µM | < 500 nM | –
26 | CCc1cc(N2CC3C(C2)C3(C)C)cc2[s+]c3cc(N4CC5C(C4)C5(C)C)cc(C)c3nc12 (centres unmarked) [Compound 12] | 6.25 µM | < 500 nM | –
27 | FC(F)(F)c1cc(N2CCCC2)cc2[s+]c3cc(N4CCCC4)ccc3nc12 [Compound 71] | – | < 2500 nM | –
28 | CC(C)(C)OC(=O)NCc1cc2nc3ccc(N4CC5C(C4)C5(C)C)cc3[s+]c2cc1N1CC2C(C1)C2(C)C (centres unmarked) [Compound 8] | 6.3 µM | < 2500 nM | –
29 | c1cc2nc3ccc(N4CCC4)cc3[s+]c2cc1N1CCC1 [Compound 29] | 25 µM | < 2500 nM | –
30 | CCc1cc(N2CC3C(C2)C3(C)C)cc2[s+]c3cc(N4CC5C(C4)C5(C)C)cc(CC)c3nc12 (centres unmarked) [Compound 10] | 6.25 µM | < 500 nM | –
31 | CC1(C)C2CN(c3ccc4nc5c(Cl)cc(N6CC7C(C6)C7(C)C)cc5[s+]c4c3)CC21 (centres unmarked) [Compound 15] | 12.5 µM | 2500 nM | –
32 | CC(C)(C)c1cc(N2CCCC2)cc2[s+]c3cc(N4CCCC4)ccc3nc12 [Compound 65] | 3.1 µM | < 500 nM | –
33 | CCc1cc(N2CCCNCC2)cc2[s+]c3cc(N4CCCC4C)cc(CC)c3nc12 (centres unmarked) [Compound 81] | – | < 2500 nM | –
34 | CC(C)(C)OC(=O)NCc1cc2nc3ccc(N4CCCC4)cc3[s+]c2cc1N1CCCC1 [Compound 24] | 1.6 µM | < 2500 nM | –
35 | N#Cc1cc(N2CCCC2)cc2[s+]c3cc(N4CCCC4)cc(N4CCCC4)c3nc12 [Compound 78] | – | < 2500 nM | –
36 | c1ccc(C2CCN(c3ccc4nc5ccc(N6CCC(c7ccccc7)C6)cc5[s+]c4c3)C2)cc1 (centres unmarked) [Compound 47] | 3.1 µM | – | –
37 | Clc1cc(N2CCCC2)cc2[s+]c3cc(N4CCCC4)cc(Cl)c3nc12 [Compound 42] | 1.6 µM | < 12500 nM | –
38 | CC1(C)C2CN(c3ccc4nc5ccc(N6CCCCCC6)cc5[s+]c4c3)CC21 (centres unmarked) [Compound 30, 3-[6,6-dimethyl-3-azabicyclo[3.1.0]hexan-N-yl]-7-(azepan-1-yl) phenothiazinium iodide] | 0.8 µM | – | –
39 | COCCN(CCOC)c1ccc2nc3c(C(C)(C)C)cc(N(CCOC)CCOC)cc3[s+]c2c1 [Compound 67] | – | < 500 nM | –
40 | Fc1cc(N2CCCC2)cc2[s+]c3cc(N4CCCC4)ccc3nc12 [Compound 43] | 3.1 µM | 500 nM | –
41 | CN(C)c1ccc2nc3ccc(N4CC5C(C4)C5(C)C)cc3[s+]c2c1 (centres unmarked) [Compound 31] | 1.6 µM | < 2500 nM | –
42 | CC1(C)C2CN(c3cc(F)c4nc5c(F)cc(N6CC7C(C6)C7(C)C)cc5[s+]c4c3)CC21 (centres unmarked) [Compound 13] | 12.5 µM | 2500 nM | –

Row | Structure (SMILES) | MIC (E. coli ATCC25922) | EC50 (Hennes-20 cells) | Anti-bacterial Activity (E. coli MIC (uM)) (E. coli ATCC25922; E. coli, Table 5)
43 | CCc1cc(N2CCCC2)cc2[s+]c3cc(N4CCCC4)cc(CC)c3nc12 [Compound 39] | 3.1 µM | – | –
44 | Cc1cc(N2CCCC2)cc2[s+]c3cc(N4CCCC4)cc(C)c3nc12 [Compound 40] | 1.6 µM | – | –
45 | CC(C)(C)c1cc(N2CCOCC2)cc2[s+]c3cc(N4CCOCC4)ccc3nc12 [Compound 88] | – | 12500 nM | –
46 | c1ccc2c(c1)Sc1ccccc1N2c1ccc2nc3c(N4CCCC4)cc(N4CCCC4)cc3[s+]c2c1 [Compound 19] | 12.5 µM | – | –
47 | c1cc2nc3ccc(N4CCC5(CCC5)C4)cc3[s+]c2cc1N1CCC2(CCC2)C1 [Compound 17] | 3.1 µM | – | –
48 | Cc1cc(N2CCCC2)cc2[s+]c3cc(N4CCCC4)ccc3nc12 [Compound 79] | – | < 12500 nM | –
49 | CC1(C)C2CN(c3ccc4nc5c(N6CC7C(C6)C7(C)C)cc(N6CC7C(C6)C7(C)C)cc5[s+]c4c3)CC21 (centres unmarked) [Compound 6] | 6.3 µM | 500 nM | –
50 | CCCCc1cc(N2CCCC2)cc2[s+]c3cc(N4CCCC4)ccc3nc12 [Compound 70] | – | < 2500 nM | –
51 | FC1CCN(c2ccc3nc4ccc(N5CCC(F)C5)cc4[s+]c3c2)C1 (centres unmarked) [Compound 54] | 25 µM | – | –
52 | Clc1cc(N2CCCC2)cc2[s+]c3cc(N4CCCC4)ccc3nc12 [Compound 86] | – | < 500 nM | –
53 | CC1C=CC(C)N1c1ccc2nc3ccc(N4C(C)C=CC4C)cc3[s+]c2c1 (centres unmarked) [Compound 61] | 25 µM | – | –
54 | FC(F)(F)c1cc(N2CCCC2)cc2[s+]c3cc(N4CCCC4)cc(N4CCCC4)c3nc12 [Compound 75] | – | < 2500 nM | –
55 | FC1(F)C2CN(c3ccc4nc5ccc(N6CC7C(C6)C7(F)F)cc5[s+]c4c3)CC21 (centres unmarked) [Compound 2] | 1.6 µM | – | –
56 | COc1cc2nc3ccc(N4CCCC4)cc3[s+]c2cc1N1CCCC1 [Compound 84] | – | < 12500 nM | –
57 | Cc1cc(N(C)C)cc2[s+]c3cc(N4CCCC4)cc(C)c3nc12 [Compound 33] | 1.6 µM | – | –
58 | CC(C)(C)OC(=O)NC1CCN(c2ccc3nc4ccc(N5CC6C(C5)C6(C)C)cc4[s+]c3c2)C1 (centres unmarked) [Compound 32] | 6.25 µM | – | –
59 | CC(C)(C)c1cc(N2CCC(C(=N)N)CC2)cc2[s+]c3cc(N4CCCC4)ccc3nc12 [Compound 91] | – | > 12500 nM | –
60 | CCc1cc(C(C)C)cc2[s+]c3cc(N(C)C)cc(CC)c3nc12 [Compound 60] | – | < 2500 nM | –
61 | Fc1cc(N2CCCC2)cc2[s+]c3cc(N4CCCC4)cc(F)c3nc12 [Compound 44] | 6.3 µM | – | –
62 | CC1(C)CCCN1c1ccc2nc3ccc(N4CCCC4(C)C)cc3[s+]c2c1 [Compound 52] | 12.5 µM | – | –
